In PMC11590367, “Characterization of novel small molecule inhibitors of estrogen receptor-activation function 2 (ER-AF2)” (Breast Cancer Research : BCR, 2024):

T1: ER-LBD (residues 298–554), recombinant, N-terminal His-tag (UniProt P03372 298-554, red fluorescent dye (Protein Labeling Kit RED-NHS 2nd Generation))
T1 construct: Kept with 20 µM E2 in lysis and assay buffers; also called recombinant ER-LBD; source: E. coli (BL21-DE3) with pRARE, purified (Ni-NTA, size exclusion s75), 50 µM E2 added during expression
T1 sequence (looked up): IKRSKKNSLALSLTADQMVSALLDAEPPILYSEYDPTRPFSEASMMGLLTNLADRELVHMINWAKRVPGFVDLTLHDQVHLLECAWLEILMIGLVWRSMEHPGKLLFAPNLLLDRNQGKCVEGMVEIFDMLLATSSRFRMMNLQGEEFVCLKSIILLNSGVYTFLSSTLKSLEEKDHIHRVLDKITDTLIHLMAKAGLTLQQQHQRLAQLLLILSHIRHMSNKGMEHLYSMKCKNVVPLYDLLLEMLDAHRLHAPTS

B1: coactivator peptide PGC1α (control peptide of the MST assay) (peptide)
chain: EAEEPSLLKKLLLAPANTQ

Key:
TamR3 cells = assay: PrestoBlue viability assay, TamR3; type: cell-based; details: 1 nM E2, 72 h treatment, ± SD of 3 biological replicates
Method: (§1) T47D, MCF7, TamR3, and MDA-MB-231 cells were starved for 72 h and then seeded into black clear-bottom 96-well plates (Corning Life Sciences Cat#3904) at 20,000 cells/well (T47D, MCF7, TamR3) or 5,000 cells/well (MDA-MB-231). […] 20 µl of PrestoBlue Cell Viability Reagent (Thermo Fisher A13262) was added to each well and incubated at 37 °C for 1 h. Fluorescence intensity was measured using the TECAN F500 plate reader with emission and excitation wavelengths of […], respectively.

T47D cells = assay: PrestoBlue viability assay, T47D; type: cell-based; details: 1 nM E2, 72 h treatment, ± SD of 3 biological replicates
Method: as §1

MCF7 cells = assay: PrestoBlue viability assay, MCF7; type: cell-based; details: Homo sapiens, 1 nM E2, 72 h treatment, ± SD of 3 biological replicates
Method: as §1

[1] = tested on: ER transcriptional activity in T47D-KBluc cells; assay: Luciferase transcriptional assay; type: cell-based; details: ER transcription, luciferase reporter, 1 nM E2, 24 h treatment, ± SD of 3 biological replicates
Method: T47D-KBluc cells or PC3m-luc cells were starved for 72 h and then seeded into 96-well plates at 20,000 or 5,000 cells/well, respectively. […] One day post-treatment, the media was removed, and cells were lysed with 65 µl of 1x passive lysis buffer (Promega #E1910). Following two freeze-thaw cycles, 20 µl of lysate were transferred to a white, 96-well flat bottom plate (Corning Life Sciences Cat#3912). 50 µl of luciferase reagent (Promega. Luciferase Assay System E1500) was added to each well, and luminescence was measured using the TECAN M200 Pro plate reader. E2 (1 nM), 4-hydroxytamoxifen (OHT) (4 nM), and DMSO (0.2%) were used as controls for this assay. […] E2 alone represented 100% transcriptional activation, while the 0.2% DMSO control represented 0% transcriptional activity. OHT was used as a positive control for an active compound.

[2] = Precipitation in MST assay buffer; type: physicochemical; details: 2% DMSO, 0.03 to 1000 µM
Method: MST was used to validate the direct binding and measure the binding affinities between the lead compounds and the recombinant ER-LBD. ER-LBD was labeled with red fluorescent dye using a Protein Labeling Kit RED-NHS 2nd Generation (Nanotemper MO-L011) according to the manufacturer’s protocol. The compounds were serially diluted 1:2 in 100% DMSO from 50 to 0.0015 mM, then added to 10 nM of labeled ER protein in the assay buffer (25 mM Tris, pH 8.4, 150 mM NaCl, 20 µM E2, 0.1 mM PMSF, 0.05% Tween20) at final concentrations of 0.03 to 1000 µM. Recombinant proteins in cell free assays are not affected by DMSO concentrations up to 10%. A final concentration of 2% DMSO was chosen for MST as the compounds required this concentration to be soluble in the assay buffer. […] The corresponding data points were removed from the analysis. […] Each protein/compound mixture was then loaded into Monolith Premium Capillaries (Nanotemper MO-K025). All assays were conducted with medium MST power and 20% excitation power. Data analysis and Kd estimation were performed with the MO Affinity Analysis software from Nanotemper.

ER D538G/F404L mutant = ER D538G/F404L mutant (Homo sapiens, UniProt P03372, D538G/F404L); assay: Transcriptional activity of fulvestrant resistant mutant ER; type: cell-based; details: compared to DMSO
Chain of ER D538G/F404L mutant (P03372 whole entry F404L/D538G): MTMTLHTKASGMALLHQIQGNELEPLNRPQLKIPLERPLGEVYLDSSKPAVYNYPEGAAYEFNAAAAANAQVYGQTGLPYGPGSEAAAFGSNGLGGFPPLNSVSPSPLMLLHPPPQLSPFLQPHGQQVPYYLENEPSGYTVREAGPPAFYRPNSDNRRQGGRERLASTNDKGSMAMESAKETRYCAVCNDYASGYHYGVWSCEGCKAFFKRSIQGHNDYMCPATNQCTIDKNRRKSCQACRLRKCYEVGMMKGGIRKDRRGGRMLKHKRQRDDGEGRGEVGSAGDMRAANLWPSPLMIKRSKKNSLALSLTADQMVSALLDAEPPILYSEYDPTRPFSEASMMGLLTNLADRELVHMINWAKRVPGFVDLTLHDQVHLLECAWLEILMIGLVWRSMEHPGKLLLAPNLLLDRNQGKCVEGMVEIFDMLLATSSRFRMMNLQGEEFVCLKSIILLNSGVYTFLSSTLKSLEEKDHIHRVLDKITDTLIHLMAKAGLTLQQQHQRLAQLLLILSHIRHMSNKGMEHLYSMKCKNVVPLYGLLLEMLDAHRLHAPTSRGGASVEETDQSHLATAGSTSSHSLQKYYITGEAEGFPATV

[3] = parameters: method as in earlier work; details: cited from earlier work
[4] = parameters: method as in earlier work; details: cited from earlier work; remark: listed apart in the source
MDA-MB-231 cells = assay: PrestoBlue viability assay, MDA-MB-231; type: cell-based; details: dose response 50 to 0.01 µM, 1 nM E2
Method: as §1

[5] = biological target: T2, full length ERɑ protein, estrogen binding site (EBS) (Homo sapiens, UniProt P03372); assay: E2-displacement assay (PolarScreen fluorescence polarization); details: fluorescence polarization, 1, 10 and 50 µM
T2 construct: full length ERɑ protein was incubated with Fluormone ES2 Green; purchased ThermoFisher A15882
T2 sequence (P03372 whole entry): as the sequence (P03372 whole entry F404L/D538G) above, with L404F, G538D counted along it
Method: The E2 displacement assay was performed using the PolarScreen Estrogen Receptor Alpha Competitor Assay, Green (ThermoFisher A15882) according to the manufacturer’s protocol. In brief, full length ERɑ protein was incubated with Fluormone ES2 Green (Fluormone Tracer) in the ES2 screening buffer in a black bottom 384-well plate (Corning 3573) in the presence of either 1, 10, or 50 µM of test compounds. The final concentrations in the assay were 2% DMSO (consistent with the MST assay), 4.5 nM fluormone, and 40 nM ERɑ protein. 20 µl of the mixture were added to each well, with triplicates performed for each condition. The plate was incubated in the dark at room temperature for 4 h before fluorescence polarization was measured using a Synergy Neo2 plate reader (BioTek).

[6] = biological target: T3, recombinant ER-LBD (residues 298–554) (Homo sapiens, UniProt P03372); assay: Microscale thermophoresis (MST) direct binding; details: averaged from three independent assays, 20 µM E2 in buffer, read-out: Kd (binding affinity to ER-LBD)
T3 construct: The ER-LBD (residues 298–554) was cloned into pET28a bacterial expression plasmid; His-tag (N); made in house; host or cells: E. coli BL21-DE3 (with pRARE)
Method: The ER-LBD (residues 298–554) was cloned into pET28a bacterial expression plasmid with an N-terminal His-tag. pET28a-His-ER and pRARE were transformed into E. coli (BL21-DE3). Bacteria were grown at 37 [drawing 1] C overnight, and then diluted 1:20 the following day in LB media and grown at 37 [drawing 2] C until the OD600 reached 0.5. Protein expression was induced with 1 mM IPTG, and 50 µM E2 was added to the media. Cells were then grown for 5 h at 25 °C. Bacterial pellets were collected by centrifugation at 13,000 rpm for 7 min. Pellets were resuspended in lysis buffer (25 mM Tris, pH 8.4, 150 mM NaCl, 20 µM E2, 1 mM DTT, 0.1 mM PMSF, cOmplete protease inhibitor (Roche)) then sonicated and centrifuged to obtain the soluble extracts. ER-LBD was purified using affinity chromatography with Ni-NTA agarose resin. The presence of the ER-LBD in eluted fractions was confirmed by SDS-PAGE and validated by mass spectrometry. The eluted protein was further purified by size exclusion chromatography (s75), and fractions containing the ER-LBD protein were pooled and concentrated using Amicon Ultra centrifugal filters (3 K MWCO).
MST was used to validate the direct binding and measure the binding affinities between the lead compounds and the recombinant ER-LBD. […]

[7] = biological target: T4, ER-LBD AF2 site / PGC1a coactivator peptide (Homo sapiens, UniProt P03372); assay: TR-FRET coactivator peptide displacement (LanthaScreen ER alpha Coactivator Assay); type: binding; details: 4 nM E2, 4 h
T4 construct: The assay utilizes GST-tagged ER-LBD (final concentration, 7.3 nM); purchased Thermo Fisher A15885
Method: We performed a TR-FRET assay to assess whether compounds displace the AF2 peptide from the ER-AF2 pocket using the LanthaScreen TR-FRET ER alpha Coactivator Assay Kit (Thermo Fisher, A15885). The assay utilizes GST-tagged ER-LBD (final concentration, 7.3 nM), terbium-labeled GST-antibody (final concentration, 5 nM), and a fluorescein-coactivator peptide, PGC1a (final concentration, 250 nM) in the presence of 4 nM E2. The GST-antibody, ER protein and fluorescent peptide mixture was incubated with four concentrations of compound (500 µM, 167 µM, 56 µM, 18.5 µM) for 4 h. The sample was excited at 340 nm and read at 520 nm on a Syngergy Neo2 plate reader (BioTek).

[8] = tested on: ER target genes (cyclinD1, CDC2, E2F, PR, pS2) in TamR3 cells; assay: Real-time PCR of ER target genes, TamR3; type: cell-based; details: 1 µM Tamoxifen
Method: Total RNA was extracted using TRIzol, 72 h post-treatment. cDNA synthesis was conducted using the Maxima First Strand cDNA Synthesis Kit for RT-qPCR (Thermo K1641) according to the manufacturer’s protocol. RT-PCR was conducted on the QuantStudio 7 Pro instrument and expression fold change was calculated using 2−ΔΔCt method normalized to 18s.

[9] = biological target: T1, ER-LBD (residues 298–554), recombinant, …; assay: MST; 10 nM RED-NHS labelled ER-LBD, ligand titrated; 25 mM Tris pH 8.4, 150 mM NaCl, 20 µM E2, 0.1 mM PMSF, 0.05% Tween20; medium MST power, 20% excitation power; Kd averaged from three independent assays; details: both partners purified

Row | Molecule | IC50 (TamR3 cells) [µM] | IC50 (T47D cells; Homo sapiens, T47D, 72 h) [µM] | IC50 (MCF7 cells) [µM] | IC50 ([1]; 24 h) [µM] | Precipitation after addition of ER protein [2] | further results
1 | Cc1cccn2c(CNCc3cccc(NC(=O)[C@H]4CCCO4)c3)cnc12 [VPC-260963] | 16.2 ± 3.38 | 19 ± 5.66 | 21.1 ± 4.67 | 11.9 ± 3.62 |  | 
2 | O=C(NCc1ccc2occc2c1)Nc1ccc(OCC2CCCO2)cc1 (stereo not drawn) [VPC-260936] | 21.8 ± 6.51 | 10.6 ± 4.27 |  | 27.2 ± 6.44 | exhibited precipitation at 1000 and 500 µM | 
3 | C[C@]12CC[C@@H]3c4ccc(O)cc4C[C@@H](CCCCCCCCC[S+]([O-])CCCC(F)(F)C(F)(F)F)[C@H]3[C@@H]1CC[C@@H]2O (stereo partly drawn) [fulvestrant] |  |  |  |  |  | Transcriptional activity of mutant ER D538G/F404L (ER D538G/F404L mutant): increased the transcriptional activity; Solubility [3]: poor solubility; Oral bioavailability [4]: not orally bioavailable
4 | Cc1cccc(Oc2ccc(NC(=O)N3CCC(c4nnc[nH]4)C3)cn2)c1C (stereo not drawn) [VPC-260955] | 28.7 ± 1.3 | 18.6 ± 1.13 |  | 17.4 ± 1.12 | exhibited precipitation at 1000 and 500 µM | 
5 | Cc1cccn2c(CNCc3cccc(NC(=O)[C@@H]4CCCO4)c3)cnc12 [VPC-260962] | 27.8 ± 7.99 | 8.9 | 16.4 ± 3.59 | 10.8 |  | IC50 (T47D cells): 8.92 ± 2.81 µM; Effect on viability of ER-negative MDA-MB-231 cells (MDA-MB-231 cells): minimal impact; IC50 [1]: 10.8 ± 2.92 µM
6 | Cc1cccc(Oc2ccc(NC(=O)N[C@H]3C[C@H](CO)C3)cn2)c1C [VPC-260927] | 24.4 ± 2.48 | 13.8 ± 4.23 | 19.5 ± 2.16 | 10.8 ± 3.85 |  | Displacement of fluormone (fluorescent E2) from EBS [5]: displaces the fluormone at 1, 10 and 50 µM; Kd [6]: 13.2 ± 10.5 µM; Concentration at which a reduction of the FRET signal (PGC1⍺ peptide displacement) was observed [7]: 500 µM
7 | Cc1cccn2c(CNCc3ccc(F)cc3F)cnc12 [VPC-260711] | 16.8 ± 2.07 | 5.4 ± 1.23 | 18 ± 1.3 | 6.4 | exhibited precipitation at 1000 and 500 µM | Effect on viability of ER-negative MDA-MB-231 cells (MDA-MB-231 cells): minimal impact; IC50 [1]: 6.36 ± 0.59 µM
8 | O=C(Nc1cccc(CNCc2cnc3ccccn23)c1)C1CCCO1 (stereo not drawn) [VPC-260961] | 18.7 ± 1.15 |  | 18.7 ± 1.18 | 7.26 ± 0.73 |  | 
9 | CC1CC(NC(=O)Nc2ccc(Oc3cccc(F)c3F)nc2)C(=O)N1c1cnn(C)c1 (stereo not drawn) [VPC-260950] | 21.4 ± 3.66 | 16 ± 6.53 |  | 12.4 ± 4.57 |  | 
10 | CC/C(=C(\c1ccccc1)c1ccc(OCCN(C)C)cc1)c1ccccc1 [Tamoxifen, tamoxifen, reference compound] |  |  |  |  |  | ER target gene expression in TamR3, tamoxifen alone [8]: increased target gene expression
11 | Cc1cccn2c(CNCc3cccc(Br)c3)cnc12 [VPC-260726] | 13.9 ± 1.84 | 11.2 ± 5.67 | 16.6 ± 1.47 | 17.9 ± 3.51 |  | 
12 | CCNC(=O)c1cccc(CNCc2cnc3c(C)cccn23)c1 [VPC-260709] |  | 6.37 ± 3.3 |  | 13.8 ± 2.92 | exhibited precipitation at 1000 and 500 µM | 
13 | B1 |  |  |  |  |  | Kd [9]: 16.6 ± 2.4 µM
